Measurements taken from ChEMBL document CHEMBL5113408, “Design, synthesis and antitumour activity of novel 5(6)-amino-benzimidazolequinones containing a fused morpholine” (Eur J Med Chem, 2022).
Active and inactive are the calls of the source. The calls are words filed in the database; no cut-off is given here.

How the values were obtained:
[1] = test system: HGC-27; test: Induction of apoptosis in human HGC-27 cells assessed as increase in cleaved caspase 7 protein expression level at 1 to 4 uM incubated for 48 hrs by Western blot analysis; format: functional, cell-based; settings: dose 1-4 µM
[2] = test system: HGC-27; test: Induction of ROS generation in human HGC-27 cells at 1 to 4 uM incubated for 24 hrs by flow cytometry analysis; format: functional, cell-based; settings: dose 1-4 µM
[3] = test system: MGC-803; test: Induction of cell cycle arrest in human MGC-803 cells assessed as accumulation of cells at S phase at 2 uM incubated for 36 hrs by PI staining based flow cytometry analysis (reference value: 20.5%); format: functional
[4] = test system: MGC-803; test: Antiproliferative activity against human MGC-803 cells assessed as inhibition of cell growth by SRB assay; format: functional, cell-based
[5] = Toxicity in BALB/c mouse xenografted with human MGC-803 cells assessed as effect on AST level at 10 to 20 mg/kg, ip administered once every two days; format: organism-based; settings: in vivo, dose 10-20 mg/kg
[6] = Toxicity in BALB/c mouse xenografted with human MGC-803 cells assessed as effect on liver at 10 to 20 mg/kg, ip administered once every two days measured after 15 days by H and E staining based assay; format: organism-based; settings: in vivo, 360 h, dose 10-20 mg/kg, time 15 day
[7] = test system: HGC-27; test: Induction of cell cycle arrest in human HGC-27 cells assessed as accumulation of cells at G2/M phase at 1 uM incubated for 36 hrs by PI staining based flow cytometry analysis (reference value: 26.2%); format: functional
[8] = test system: MGC-803; test: Induction of apoptosis in human MGC-803 cells assessed as increase in cleaved caspase 7 protein expression level at 1 to 4 uM incubated for 48 hrs by Western blot analysis; format: functional, cell-based; settings: dose 1-4 µM
[9] = test system: MGC-803; test: Induction of cell cycle arrest in human MGC-803 cells assessed as accumulation of cells at S phase at 1 uM incubated for 36 hrs by PI staining based flow cytometry analysis (reference value: 20.5%); format: functional
[10] = test system: MGC-803; test: Induction of ROS generation in human MGC-803 cells at 1 to 4 uM incubated for 24 hrs by flow cytometry analysis; format: functional, cell-based; settings: dose 1-4 µM
[11] = test system: HGC-27; test: Induction of DNA damage in human HGC-27 cells assessed as increase in p-Chk generation incubated for 48 hrs by Western blot analysis; format: functional, cell-based; settings: DDE = dose-dependent effect
[12] = test system: HGC-27; test: Induction of apoptosis in human HGC-27 cells assessed as increase in cleaved caspase 3 protein expression level at 1 to 4 uM incubated for 48 hrs by Western blot analysis; format: functional, cell-based; settings: dose 1-4 µM
[13] = test system: MGC-803; test: Antitumor activity against human MGC-803 cells xenografted with BALB/c mouse assessed as reduction in tumor weight at 10 to 20 mg/kg, ip administered once every two days; format: functional, organism-based; settings: dose 10-20 mg/kg
[14] = test system: MGC-803; test: Induction of cell cycle arrest in human MGC-803 cells assessed as accumulation of cells at G1 phase at 2 uM incubated for 36 hrs by PI staining based flow cytometry analysis (reference value: 45.8%); format: functional
[15] = test system: MGC-803; test: Induction of mitochondrial membrane depolarization in human MGC-803 cells incubated for 48 hrs by flow cytometry analysis; format: functional, cell-based; settings: dose 1-4 µM, DDE = dose-dependent effect
[16] = test system: MGC-803; test: Antitumor activity against human MGC-803 cells xenografted with BALB/c mouse assessed as reduction in tumor growth at 10 to 20 mg/kg, ip administered once every two days; format: functional, organism-based; settings: dose 10-20 mg/kg
[17] = test system: MGC-803; test: Induction of DNA damage in human MGC-803 cells assessed as increase in gamma-H2AX generation incubated for 48 hrs by Western blot analysis; format: functional, cell-based; settings: DDE = dose-dependent effect
[18] = test system: HGC-27; test: Induction of DNA damage in human HGC-27 cells assessed as increase in gamma-H2AX generation incubated for 24 hrs by immunofluorescence analysis; format: functional, cell-based
[19] = test system: MGC-803; test: Induction of apoptosis in human MGC-803 cells assessed as decrease in caspase 9 protein expression level at 1 to 4 uM incubated for 48 hrs by Western blot analysis; format: functional, cell-based; settings: dose 1-4 µM
[20] = test system: HGC-27; test: Induction of DNA damage in human HGC-27 cells assessed as increase in gamma-H2AX generation incubated for 48 hrs by Western blot analysis; format: functional, cell-based; settings: DDE = dose-dependent effect
[21] = test system: MGC-803; test: Induction of cell cycle arrest in human MGC-803 cells assessed as accumulation of cells at G1 phase at 1 uM incubated for 36 hrs by PI staining based flow cytometry analysis (reference value: 45.8%); format: functional
[22] = test system: MGC-803; test: Induction of DNA damage in human MGC-803 cells assessed as increase in p-Chk generation incubated for 48 hrs by Western blot analysis; format: functional, cell-based; settings: DDE = dose-dependent effect
[23] = test system: MGC-803; test: Induction of cell cycle arrest in human MGC-803 cells assessed as accumulation of cells at G2/M phase at 4 uM incubated for 36 hrs by PI staining based flow cytometry analysis (reference value: 20.5%); format: functional
[24] = test system: MGC-803; test: Activation of ROS/JNK signalling in human MGC-803 cells assessed as increase in p-JNK level at 1 to 4 uM by Western blot analysis; format: cell-based; settings: filed as activator, dose 1-4 µM
[25] = test system: HGC-27; test: Induction of apoptosis in human HGC-27 cells incubated for 48 hrs in presence of NAC by Annexin V-FITC and PI staining based flow cytometry analysis; format: functional
[26] = test system: MGC-803; test: Induction of cell cycle arrest in human MGC-803 cells assessed as accumulation of cells at G2/M phase at 1 uM incubated for 36 hrs by PI staining based flow cytometry analysis (reference value: 20.5%); format: functional
[27] = test system: HGC-27; test: Induction of cell cycle arrest in human HGC-27 cells assessed as decrease in p-cdc2 level at 1 to 4 uM by Western blot analysis; format: functional, cell-based; settings: dose 1-4 µM
[28] = test system: HeLa; test: Antiproliferative activity against human HeLa cells assessed as inhibition of cell growth by SRB assay; format: functional, cell-based
[29] = test system: MGC-803; test: Induction of apoptosis in human MGC-803 cells assessed as decrease in caspase 3 protein expression level at 1 to 4 uM incubated for 48 hrs by Western blot analysis; format: functional, cell-based; settings: dose 1-4 µM
[30] = test system: MGC-803; test: Activation of ROS/JNK signalling in human MGC-803 cells assessed as increase in p-MKK4 level by Western blot analysis; format: cell-based; settings: filed as activator, dose 1-4 µM, DDE = dose-dependent effect
[31] = test system: MGC-803; test: Induction of apoptosis in human MGC-803 cells assessed as increase in cleaved caspase 3 protein expression level at 1 to 4 uM incubated for 48 hrs by Western blot analysis; format: functional, cell-based; settings: dose 1-4 µM
[32] = test system: MGC-803; test: Induction of cell cycle arrest in human MGC-803 cells assessed as decrease in cyclin-B1 level at 1 to 4 uM by Western blot analysis; format: functional, cell-based; settings: dose 1-4 µM
[33] = test system: HGC-27; test: Induction of DNA damage in human HGC-27 cells assessed as increase in p-ATM generation incubated for 48 hrs by Western blot analysis; format: functional, cell-based; settings: DDE = dose-dependent effect
[34] = test system: HGC-27; test: Induction of cell cycle arrest in human HGC-27 cells assessed as accumulation of cells at G1 phase at 1 uM incubated for 36 hrs by PI staining based flow cytometry analysis (reference value: 49.6%); format: functional
[35] = test system: MGC-803; test: Induction of DNA damage in human MGC-803 cells assessed as increase in gamma-H2AX generation incubated for 24 hrs by immunofluorescence analysis; format: functional, cell-based
[36] = test system: HGC-27; test: Induction of apoptosis in human HGC-27 cells assessed as decrease in caspase 3 protein expression level at 1 to 4 uM incubated for 48 hrs by Western blot analysis; format: functional, cell-based; settings: dose 1-4 µM

Compound: Cc1ccc(NC2=CC(=O)c3nc4n(c3C2=O)[C@H]2OC[C@@H](O)[C@H]2OC4)cc1C
- Activity [1]: Active
- Activity [2]: Active
- Activity [3]: 39.3%
- IC50 [4]: 860 nM
- Activity [5]: Non-Toxic
- Activity [6]: Non-Toxic
- Activity [7]: 28.8%
- Activity [8]: Active
- Activity [9]: 35.4%
- Activity [10]: Active
- Activity [11]: Dde
- Activity [12]: Active
- Activity [13]: Active
- Activity [14]: 29.2%
- Activity [15]: Dde
- Activity [16]: Active
- Activity [17]: Dde
- Activity [18]: Active
- Activity [19]: Active
- Activity [20]: Dde
- Activity [21]: 33.6%
- Activity [22]: Dde
- Activity [23]: 28.2%
- Activity [24]: Active
- Activity [25]: 1.4%
- Activity [26]: 23.5%
- Activity [27]: Active
- IC50 [28]: 2690 nM
- Activity [29]: Active
- Activity [30]: Dde
- Activity [31]: Active
- Activity [32]: Active
- Activity [33]: Dde
- Activity [34]: 49.3%
- Activity [35]: Active
- Activity [36]: Active
